How the values were obtained:
human σ1 receptor = molecular target: T1, human σ1 receptor (Homo sapiens, UniProt Q99720); test: Human σ1 receptor radioligand assay ([3H](+)-pentazocine); settings: transfected HEK-293 membranes, 5 nM [3H](+)-pentazocine, 37° C. 120 minutes; read-out: Binding σ-1
T1 construct: expressed in transfected cells; host or cells: HEK-293
Experimental: Transfected HEK-293 membranes (7 μg) were incubated with 5 nM of [^3H](+)-pentazocine in assay buffer containing Tris-HCl 50 mM at pH 8. NBS (non-specific binding) was measured by adding 10 μM haloperidol. The binding of the test compound was measured at either one concentration (% inhibition at 1 or 10 μM) or five different concentrations to determine affinity values (Ki). Plates were incubated at 37° C. for 120 minutes. After the incubation period, the reaction mix was then transferred to MultiScreen HTS, FC plates (Millipore), filtered and plates were washed 3 times with ice-cold 10 mM Tris-HCL (pH 7.4). Filters were dried and counted at approximately 40% efficiency in a MicroBeta scintillation counter (Perkin-Elmer) using EcoScint liquid scintillation cocktail.

human σ2/TMEM97 receptor = molecular target: T2, human σ2/TMEM97 receptor (Homo sapiens, UniProt Q5BJF2); test: Binding assay to human σ2/TMEM97 receptor ([3H]-DTG); settings: transfected HEK-293 membranes, 10 nM [3H]-DTG, 25° C. 120 minutes; read-out: Binding σ-2
T2 construct: expressed in transfected cells; host or cells: HEK-293
T2 sequence (Q5BJF2 whole entry): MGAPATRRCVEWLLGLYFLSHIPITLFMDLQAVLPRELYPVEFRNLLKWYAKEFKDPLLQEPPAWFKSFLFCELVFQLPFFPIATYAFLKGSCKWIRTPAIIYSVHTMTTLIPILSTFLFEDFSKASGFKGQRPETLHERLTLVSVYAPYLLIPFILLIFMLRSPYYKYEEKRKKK
Experimental: Transfected HEK-293 membranes (15 μg) were incubated with 10 nM [^3H]-1,3-Di-o-tolylguanidine (DTG) in assay buffer containing Tris-HCl 50 mM at pH 8.0. NSB (non-specific binding) was measured by adding 10 μM haloperidol. The binding of the test compound was measured at either one concentration (% inhibition at 1 or 10 μM) or five different concentrations to determine affinity values (Ki). Plates were incubated at 25° C. for 120 minutes. After the incubation period, the reaction mix was transferred to MultiScreen HTS, FC plates (Millipore), filtered and washed 3 times with ice-cold 10 mM Tris-HCL (pH 8.0). Filters were dried and counted at approximately 40% efficiency in a MicroBeta scintillation counter (Perkin-Elmer) using EcoScint liquid scintillation cocktail.

T1 sequence (Q99720 whole entry): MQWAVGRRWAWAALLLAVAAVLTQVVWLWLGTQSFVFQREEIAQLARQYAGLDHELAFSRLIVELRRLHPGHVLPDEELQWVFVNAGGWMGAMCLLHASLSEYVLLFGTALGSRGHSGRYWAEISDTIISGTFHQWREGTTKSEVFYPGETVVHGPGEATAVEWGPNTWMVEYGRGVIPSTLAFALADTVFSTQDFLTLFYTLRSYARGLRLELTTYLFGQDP

Structure (SMILES)	Ki (human σ1 receptor) [nM]	Ki (human σ2/TMEM97 receptor) [nM]
Cc1cc(-c2cnc(C3CC3)nc2C2CCN(CC(=O)N3CCOCC3)CC2)on1 [Example 1, 2-(4-(2-Cyclopropyl-5-(3-methylisoxazol-5-yl)pyrimidin-4-yl)piperidin-1-yl)-1-morpholinoethanone]	500 to 1000	< 100
Cc1cc(-c2cnc(C(C)C)nc2C2CCN(CC(=O)N3CCOCC3)CC2)on1 [Example 2, 2-(4-(2-Isopropyl-5-(3-methylisoxazol-5-yl)pyrimidin-4-yl)piperidin-1-yl)-1-morpholinoethanone]	> 1000	< 100
Cc1cc(-c2cnc(C(F)(F)F)nc2C2CCN(CC(=O)N3CCOCC3)CC2)on1 [Example 8, 2-(4-(5-(3-Methylisoxazol-5-yl)-2-(trifluoromethyl)pyrimidin-4-yl)piperidin-1-yl)-1-morpholinoethanone]	> 1000	< 100
CCc1ncc(-c2cc(C)no2)c(C2CCN(CCN3CCOCC3)CC2)n1 [Example 10, 4-(2-(4-(2-Ethyl-5-(3-methylisoxazol-5-yl)pyrimidin-4-yl)piperidin-1-yl)ethyl)morpholine]	100 to 500	< 100
CCc1ncc(-c2ccccn2)c(C2CCN(CC(=O)N3CCOCC3)CC2)n1 [Example 13, 2-(4-(2-Ethyl-5-(pyridin-2-yl)pyrimidin-4-yl)piperidin-1-yl)-1-morpholinoethan-1-one]	> 1000	100 to 500
CCc1ncc(-c2cccc(C)n2)c(C2CCN(CC(=O)N3CCOCC3)CC2)n1 [Example 14, 2-(4-(2-Ethyl-5-(6-methylpyridin-2-yl)pyrimidin-4-yl)piperidin-1-yl)-1-morpholinoethan-1-one]	> 1000	100 to 500
CCc1ncc(-c2ccncc2)c(C2CCN(CC(=O)N3CCOCC3)CC2)n1 [Example 15, 2-(4-(2-Ethyl-5-(pyridin-4-yl)pyrimidin-4-yl)piperidin-1-yl)-1-morpholinoethan-1-one]	500 to 1000	500 to 1000
CCc1ncc(-c2nccn2C)c(C2CCN(CC(=O)N3CCOCC3)CC2)n1 [Example 16, 2-(4-(2-Ethyl-5-(1-methyl-1H-imidazol-2-yl)pyrimidin-4-yl)piperidin-1-yl)-1-morpholinoethan-1-one]	> 1000	500 to 1000
Cc1ccc(-c2ccnc(C)n2)c(C2CCN(CC(=O)N3CCOCC3)CC2)n1 [Example 19, 2-(4-(6-Methyl-3-(2-methylpyrimidin-4-yl)pyridin-2-yl)piperidin-1-yl)-1-morpholinoethan-1-one]	500 to 1000	500 to 1000

Now from value to compound:

Ki (human σ1 receptor) [nM]	Ki (human σ2/TMEM97 receptor) [nM]	Structure (SMILES)
> 1000	< 100	CCc1ncc(-c2cc(C)no2)c(C2CCN(CC(=O)N3CCCOCC3)CC2)n1 [Example 3, 2-(4-(2-Ethyl-5-(3-methylisoxazol-5-yl)pyrimidin-4-yl)piperidin-1-yl)-1-(1,4-oxazepan-4-yl)ethanone]
> 1000	< 100	CCc1ncc(-c2cc(C)no2)c(C2CCN(CC(=O)N3CCC4(CCOC4)CC3)CC2)n1 [Example 4, 2-(4-(2-Ethyl-5-(3-methylisoxazol-5-yl)pyrimidin-4-yl)piperidin-1-yl)-1-(2-oxa-8-azaspiro[4.5]decan-8-yl)ethanone]
> 1000	< 100	CCc1ncc(-c2cc(C)no2)c(C2CCN(CC(=O)N3CCOCC3)CC2)n1 [Example 5, 2-(4-(2-Ethyl-5-(3-methylisoxazol-5-yl)pyrimidin-4-yl)piperidin-1-yl)-1-morpholinoethanone]
500 to 1000	< 100	CCc1ncc(-c2cc(C)no2)c(C2CCN(CC(=O)N3CCC(F)(F)CC3)CC2)n1 [Example 6, 1-(4,4-Difluoropiperidin-1-yl)-2-(4-(2-ethyl-5-(3-methylisoxazol-5-yl)pyrimidin-4-yl)piperidin-1-yl)ethanone]
> 1000	< 100	CCc1ncc(-c2cc(C)no2)c(C2CCN(CC(=O)N3CCCN(C)CC3)CC2)n1 [Example 7, 2-(4-(2-Ethyl-5-(3-methylisoxazol-5-yl)pyrimidin-4-yl)piperidin-1-yl)-1-(4-methyl-1,4-diazepan-1-yl)ethanone]
> 1000	< 100	CCc1ncc(-c2cc(C)no2)c(C2CCN(CCC(=O)N3CCOCC3)CC2)n1 [Example 9, 3-(4-(2-Ethyl-5-(3-methylisoxazol-5-yl)pyrimidin-4-yl)piperidin-1-yl)-1-morpholinopropan-1-one]
500 to 1000	< 100	CCc1ncc(-c2cc(C)no2)c(C2CCN(CC(=O)N3CCCCC3)CC2)n1 [Example 11, 2-(4-(2-Ethyl-5-(3-methylisoxazol-5-yl)pyrimidin-4-yl)piperidin-1-yl)-1-(piperidin-1-yl)ethan-1-one]
> 1000	< 100	CCCc1ncc(-c2cc(C)no2)c(C2CCN(CC(=O)N3CCOCC3)CC2)n1 [Example 12, 2-(4-(5-(3-Methylisoxazol-5-yl)-2-propylpyrimidin-4-yl)piperidin-1-yl)-1-morpholinoethan-1-one]
100 to 500	100 to 500	CCc1ncc(-c2cc(C)no2)c([C@@H]2CCCN(CC(=O)N3CCOCC3)CC2)n1 [Example 17, (R)-2-(4-(2-Ethyl-5-(3-methylisoxazol-5-yl)pyrimidin-4-yl)azepan-1-yl)-1-morpholinoethan-1-one]
500 to 1000	< 100	CCc1ncc(-c2cc(C)no2)c([C@H]2CCCN(CC(=O)N3CCOCC3)CC2)n1 [Example 18, (S)-2-(4-(2-Ethyl-5-(3-methylisoxazol-5-yl)pyrimidin-4-yl)azepan-1-yl)-1-morpholinoethan-1-one]
